Data set [1] is described as follows: pKa of the cationic lipid (Table 1). In kind it is physicochemical.
A further data set relates to Factor VII. Put plainly: In vivo mouse Factor VII silencing (siRNA in liposome formulations with the cationic lipid). Also noted: species or system C57BL/6 mice. The note with it: C57BL6 mice; for ability to knockdown Factor VII in mouse plasma (FIGS. 1 and 2): 0.3 mg/kg, compared to controls (MC3, NC1, ATX-547, ATX-003); for Factor VII knockdown in mouse plasma (FIGS. 3 and 4): second series with MC3, NC1, ATX-547, ATX-004, ATX-006, ATX-010, ATX-001. The procedure:
Using a liver-directed in vivo screen of the liposome libraries, a series of compounds were tested that facilitate high levels of siRNA mediated gene silencing in hepatocytes, the cells comprising the liver parenchyma. Factor VII, a blood clotting factor, is a suitable target gene for assaying functional siRNA delivery to liver. Because this factor is produced specifically in hepatocytes, gene silencing indicates successful delivery to parenchyma, as opposed to delivery to the cells of the reticulo-endothelial system (e.g., Kupffer cells). Furthermore, Factor VII is a secreted protein that can be readily measured in serum, obviating the need to euthanize animals. Silencing at the mRNA level can be readily determined by measuring levels of protein. This is because the protein's short half-life (2-5 hour). C57BL/6 mice (Charles River Labs) received either saline or siRNA in liposome formulations via tail vein injection at a volume of 0.006 ml/g. At 48 h after administration, animals were anesthetized by isofluorane inhalation and blood was collected into serum separator tubes by retroorbital bleed. Serum levels of Factor VII protein were determined in samples using a chromogenic assay (Biophen FVII, Aniara Corporation) according to manufacturers' protocols. A standard curve was generated using serum collected from saline-treated animals.
Compositions with siRNA directed to […] were formulated with ATX-001, ATX-002, ATX-003, and ATX-547, and comparator samples NC1 and MC3 (Alnylam). These were injected into animals at 0.3 mg/kg and at 1 mg/kg. The siRNA encapsulated by MC3 (0.3 mg/kg), NC1 (0.3 mg/kg), ATX-547 (0.3 mg/kg), ATX-001 (0.3 and 1.0 mg/kg), ATX-002 (0.3 and 1.0 mg/kg), and ATX-003 (0.3 and 1.0 mg/kg) was measured for the ability to knockdown Factor VII in mouse plasma following administration of the siRNA formulation to C57BL6 mice.
The siRNA encapsulated MC3 (0.3 and 1.5 mg/kg), NC1 (0.3 mg/kg), ATX-547 (0.1 and 0.3 mg/kg), ATX-004 (0.3), ATX-006 (0.3 and 1.0 mg/kg), ATX-010 (0.3 mg/kg), and ATX-001 (0.3 and 1.5 mg/kg), was measured for Factor VII knockdown in mouse plasma following administration of the siRNA formulation to C57BL6 mice. […] The knockdown activity of the exemplary compounds is shown for 0.3 mg/kg or at 0.05 mg/kg for ATX-018, ATX-019, and ATX-020 (Table 1).

This note sets out measurements from patent US10399937B2, “Ionizable cationic lipid for RNA delivery” (Arcturus Therapeutics, Inc., priority 2013, dated 2019).

Structures are written as SMILES.

On to `CCCCCC/C=C\COC(=O)CCCCCCCN(CCCCCCCC(=O)OC/C=C\CCCCCC)C(=O)SCCN(C)CC` [ATX-009], for which the pKa (as a rule, the pH at which an ionisable group is half protonated) in data set [1] came out at 8.8.

`CCCCCC/C=C\COC(=O)CCCCCCCN(CCCCCCCC(=O)OC/C=C\CCCCCC)C(=O)CSCCN(C)C` [ATX-001]: the pKa in data set [1] is 8.9. For the same compound, in the data set with Factor VII, the “ability to knockdown Factor VII in mouse plasma (FIGS. 1 and 2)” value is “most effective”; the “Factor VII knockdown in mouse plasma (FIGS. 3 and 4)” value is reported as “most effective”.

`CCCCCC/C=C\COC(=O)CCCCCCCN(CCCCCCCC(=O)OC/C=C\CCCCCC)C(=O)CSCCCN(C)CC` [ATX-007] returned a pKa in data set [1] of 9.5.

In data set [1], `CCCCCC/C=C\COC(=O)CCCCCCCN(CCCCCCCC(=O)OC/C=C\CCCCCC)C(=O)SCCCN(C)C` [ATX-003] returned a pKa of 9.3.

In turn, `CCCCCC/C=C\COC(=O)CCCCCCCN(CCCCCCCC(=O)OC/C=C\CCCCCC)C(=O)CSCCN(CC)CC` [ATX-006] displayed a pKa in data set [1] of 9.8.

Regarding `CCCCCC/C=C\COC(=O)CCCCCCCN(CCCCCCCC(=O)OC/C=C\CCCCCC)C(=O)CSCCCN(CC)CC` [ATX-008], the pKa in data set [1] stood at 10.3.

Take `CCCCCC/C=C\COC(=O)CCCCCCCN(CCCCCCCC(=O)OC/C=C\CCCCCC)C(=O)SCCN(CC)CC` [ATX-010]: the pKa in data set [1] was 9.6. Moreover, the “Factor VII knockdown in mouse plasma (FIGS. 3 and 4)” value in the data set on Factor VII is “most effective”.

`CCCCCC/C=C\COC(=O)CCCCCCCN(CCCCCCCC(=O)OC/C=C\CCCCCC)C(=O)SCCCN(C)CC` [ATX-011] yielded a pKa in data set [1] of 9.4.

As for `CCCCCC/C=C\COC(=O)CCCCCCCN(CCCCCCCC(=O)OC/C=C\CCCCCC)C(=O)CSCCCN(C)C` [ATX-004], the pKa in data set [1] came to 9.4.

In turn, `CCCCCC/C=C\COC(=O)CCCCCCCN(CCCCCCCC(=O)OC/C=C\CCCCCC)C(=O)SCCN(C)C` [ATX-002] displayed a pKa in data set [1] of 8.7. Further, in the data set with Factor VII, the “ability to knockdown Factor VII in mouse plasma (FIGS. 1 and 2)” value was “most effective”.

For `CCCCCC/C=C\COC(=O)CCCCCCCN(CCCCCCCC(=O)OC/C=C\CCCCCC)C(=O)SCCCN(CC)CC` [ATX-012], in data set [1], the pKa worked out at 10.2.

`CCCCCC/C=C\COC(=O)CCCCCCCN(CCCCCCCC(=O)OC/C=C\CCCCCC)C(=O)CSCCN(C)CC` [ATX-005]: in data set [1], the pKa turned out to be 9.
